The results in this text go back to article PMC5527310, “Stringent Expression Control of Pathogenic R-body Production in Legume Symbiont Azorhizobium caulinodans” (mBio, 2017).

In this test the target is T1, His6-PraR (Azorhizobium caulinodans, UniProt A8IG10).
T1 construct: full praR ORF, N-terminal His6 tag (pCold I, plasmid pTAC99), expressed in E. coli BLR(DE3), Ni-bead purified
As to the kind of experiment: EMSA, FITC-labelled reb promoter dsDNA probe. Conditions: inhibits PraR binding to reb promoter DNA; 2OG 0.01 to 10 mM; pH 8.0, 5 mM MgCl2, 26 °C; direct 2OG binding to PraR not measured.

T1 sequence (A8IG10 entry or part of it): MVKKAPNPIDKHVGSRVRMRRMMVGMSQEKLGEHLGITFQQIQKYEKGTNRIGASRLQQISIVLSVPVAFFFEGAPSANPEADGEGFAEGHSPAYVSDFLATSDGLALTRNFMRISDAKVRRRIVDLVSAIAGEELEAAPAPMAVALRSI

`O=C(O)CCC(=O)C(=O)O` [2-oxoglutarate]: the “EMSA, FITC-labelled reb promoter dsDNA probe” value is recorded as “binding of PraR to the reb promoter dsDNA probe decreased with increasing 2OG concentration”.
